Experiment: Stability constant of the drug in relation to cyclodextrin (solubility method, Higuchi et al.)
Assay type: physicochemical
Settings: 25°C, 24 hours shaking
Protocol: The stability constant of the drug in relation to cyclodextrin calculated by the solubility method is determined in the manner that, with the concentration of each drug being kept unchanged, a mixture of the drug and a cyclodextrin solution of varying concentration is shaken on a shaker at the rate of 200 cycles/min at 25°C for 24 hours to construct a solubility phase diagram of the drug at saturation in cyclodextrin solution and the stability constant is calculate by the method of Higuchi et al. [Advances in Analytical Chemistry and Instrumentation, Vol. 4, 144-148 (1965)].
The stability constant of the drug in relation to cyclodextrin was calculated applying the formula (8) on page 146, in "Advances in Analytical Chemistry and Instrumentation", Vol. 4, (1965).

Structure (SMILES)	Stability Constant α-CyD	Stability Constant β-CyD
CC(=O)[C@@]1(O)CC[C@H]2[C@@H]3C[C@H](C)C4=CC(=O)C=C[C@]4(C)[C@@]3(F)[C@@H](O)C[C@@]21C [Fluorometholone]	54	911
CCOC(=O)O[C@]1(C(=O)OCCl)CC[C@H]2[C@@H]3CCC4=CC(=O)C=C[C@]4(C)[C@H]3[C@@H](O)C[C@@]21C [Loteprednol Etabonate]	114	305

Reference: patent EP0709099A2, “An aqueous nasal suspension comprising cyclodextrin” (Senju Pharmaceutical Co., Ltd., priority 1994, dated 1996)
